Test results as given in patent US9725460B2, “Oridonin analogs, compositions, and methods related thereto” (THE BOARD OF REGENTS OF THE UNIVERSITY OF TEXAS SYSTEM, priority 2013, dated 2017).
≈ marks a conversion by molar mass, not a printed value. Like-named read-outs stand apart in the source and are kept apart here.

Columns and labels:
Panc-1 = experiment: Cancer cell proliferation assay, Panc-1; assay type: cell-based; conditions: Homo sapiens
Method: (§1) In Vitro Determination of Effects of Synthesized Diterpenoids on Cancer Cell Proliferation. […] Then MTT solution was removed, and 150 μL of DMSO was added to each well. Absorbance of all wells was determined by measuring OD at 550 nm after a 10 min incubation on a 96-well GlowMaxate absorbance reader (Promega, Madison, Wis.). Each individual compound was tested in quadruplicate wells for each concentration.

Aqueous solubility = assay type: physicochemical; conditions: for solubility: water; for Aqueous solubility compared with oridonin: FIG. 2
DU145 = experiment: Cancer cell proliferation assay, DU145; assay type: cell-based; conditions: Homo sapiens
AsPC1 = experiment: Cancer cell proliferation assay, AsPC1; assay type: cell-based; conditions: Homo sapiens
Method: as §1

MDA-MB-231 = experiment: MTT cancer cell proliferation assay, MDA-MB-231; assay type: cell-based, human; conditions: Homo sapiens
Method: (§2) In Vitro Determination of Effects of Synthesized Diterpenoids on Cancer Cell Proliferation. Breast cancer cell lines MCF-7, MDA-MB-231, […] and MCF/ADR were seeded in 96-well plates at a density of 1×10^4 cells/well and treated with DMSO and 0.01, 0.1, 1, 5, 10, and 100 μM of individual compound for 48 h, and then 20 μL of 3-(4,5-dimethylthiazol-2-yl)-2,5-diphenyltetrazolium bromide (MTT) (5 mg/mL in PBS) was added to each well and further incubated for another 4 h. Then MTT solution was removed, and 150 μL of DMSO was added to each well. Absorbance of all wells was determined by measuring OD at 550 nm after a 10 min incubation on a 96-well GlowMaxate absorbance reader (Promega, Madison, Wis.). Each individual compound was tested in quadruplicate wells for each concentration.
(§3) The growth inhibitory effects of the newly generated pyran-fused diterpenoids were evaluated in four breast cancer cell lines MCF-7 (ER-positive), MDAMB-231 (ER-negative and triple-negative), MDA-MB-468 (ER-negative and triple-negative) as well as MCF-7/ADR (adriamycin-resistant) using MTT assays as described in the Experimental Section.

MCF-7 = experiment: MTT cancer cell proliferation assay, MCF-7; assay type: cell-based, human; conditions: Homo sapiens
Method: as §2, §3

[1] = tested on: breast, pancreatic, and prostate cancer cell lines; experiment: Anti-proliferation effects against cancer cell lines; assay type: cell-based, human; conditions: summary of Tables 1 and 2
Method: as §2

MDA-MB-468 = experiment: MTT cancer cell proliferation assay, MDA-MB-468; assay type: cell-based, human; conditions: Homo sapiens, MDA-MB-468, 48 h, Table 3; pyran-fused diterpenoids; MTT 48 h; mean ± SE of three experiments
Method: as §2
as §3, with “Section. The capability of these new molecules to inhibit the growth of cancer cells was summarized in Table 3 and compared with that of adriamycin and 1 spontaneously.” for “Section.”

MCF-7/ADR = experiment: MTT growth inhibition, drug-resistant MCF-7/ADR; assay type: cell-based, human; conditions: Homo sapiens, NCI/ADR-RES, 48 h, Table 3; adriamycin-resistant; MTT 48 h; mean ± SE of three experiments
Method: as §2
as §3, with “Section. The capability of these new molecules to inhibit the growth of cancer cells was summarized in Table 3 and compared with that of adriamycin and 1 spontaneously.” for “Section.”

[2] = PANC-1, Table 1a, pancreatic cancer, read-out: IC50 (μM) Panc-1
[3] = PANC-1, Table 2b, mean of at least three experiments, read-out: Effect on proliferation Panc-1 (IC50)
[4] = in the form of HCl salt, read-out: Aqueous solubility (saturated concentration)
[5] = DU-145, Table 1a, prostate cancer, read-out: IC50 (μM) DU145
[6] = DU-145, Table 2b, mean of at least three experiments, read-out: Effect on proliferation DU145 (IC50)
[7] = ASPC1, Table 1a, pancreatic cancer, read-out: IC50 (μM) AsPC1
[8] = ASPC1, Table 2b, mean of at least three experiments, read-out: Effect on proliferation AsPC1 (IC50)
[9] = MDA-MB-231, Table 1a, breast cancer, read-out: IC50 (μM) MDA-MB-231
[10] = MDA-MB-231, Table 2b, mean of at least three experiments, read-out: Effect on proliferation MDA-MB-231 (ER negative) (IC50)
[11] = MCF7, Table 1a, breast cancer, read-out: IC50 (μM) MCF-7
[12] = MCF7, Table 2b, mean of at least three experiments, read-out: Effect on proliferation MCF-7 (ER positive) (IC50)

SMILES | IC50 (Panc-1; [2]) [µM] | IC50 (Panc-1; [3]) [µM] | solubility (Aqueous solubility; [4]) [mg/mL] | IC50 (DU145; [5]) [µM] | IC50 (DU145; [6]) [µM] | IC50 (AsPC1; [7]) [µM] | IC50 (AsPC1; [8]) [µM] | IC50 (MDA-MB-231; [9]) [µM] | IC50 (MDA-MB-231; [10]) [µM] | IC50 (MCF-7; [11]) [µM] | IC50 (MCF-7; [12]) [µM] | IC50 values, anti-proliferation effects against cancer cell lines [1] | further results
C=C1C(=O)[C@@]23C(CCC1[C@H]2O)[C@@]12COC3(O)[C@@H](O)C1C(C)(C)Cc1sc(NCCN3CCCCC3)nc12 (stereo in doubt) [CYD-6-20, (6S,7S,7aR,10R,12bR,15R)-6,7,15-trihydroxy-5,5-dimethyl-9-methylene-2-((2-(piperidin-1-yl)ethyl)amino)-5,5a,6,7,10,11,12,12a-octahydro-4H-7,12b(epoxymethano)-7a,10-methanocyclohepta[7,8]naphtho[1,2-d]thiazol-8(9H)-one] | 1.54 | 1.5 | > 100 | 1.16 | 1.2 | 1.1 | 1.1 | 1.83 | 1.8 | 1 | 1 |  | 
C=C1C(=O)[C@]23[C@H](O)[C@H]1CC[C@H]2[C@@]12CO[C@]3(O)[C@@H](O)[C@@H]1C(C)(C)Cc1sc(NC)nc12 [CYD-5-54, (5aR,6S,7S,7aR,10S,12aS,12bR,15R)-6,7,15-trihydroxy-5,5-dimethyl-2-(methylamino)-9-methylene-5,5a,6,7,10,11,12,12a-octahydro-4H-7,12b-(epoxymethano)-7a,10-methanocyclohepta[7,8]naphtho[1,2-d]thiazol-8(9H)-one] | 2.33 | 2.3 | 81.2 | 4.05 | 4.1 | 1.84 | 1.8 | 2.06 | 2.1 | 1.28 | 1.3 | low micromolar to nanomolar | Aqueous solubility compared with oridonin (Aqueous solubility): significantly improved solubility; Improvement of aqueous solubility in comparison with oridonin (Aqueous solubility; HCl salt vs oridonin (1.29 mg/mL)): ~62 fold
C=C1C(=O)[C@@]23C(CC[C@H]1[C@H]2O)[C@@]12CO[C@]3(O)[C@@H](O)C1C(C)(C)Cc1sc(NC3CCCCC3)nc12 (stereo partly drawn) [CYD-6-17-2, (6S,7S,7aR,10R,12bR,15R)-2-(cyclohexylamino)-6,7,15-trihydroxy-5,5-dimethyl-9-methylene-5,5a,6,7,10,11,12,12a-octahydro-4H-7,12b-(epoxymethano)-7a,10-methanocyclohepta[7,8]naphtho[1,2-d]thiazol-8(9H)-one] | 3.74 | 3.7 |  | 1.82 | 1.8 | 1.65 | 1.7 | 0.83 | 0.8 | 0.94 | 0.9 | low micromolar to nanomolar | 
C=C1C(=O)[C@@]23C(CC[C@H]1[C@H]2O)[C@@]12CO[C@]3(O)[C@@H](O)C1C(C)(C)Cc1sc(C)nc12 (stereo partly drawn) [CYD-6-19, (6S,7S,7aR,10R,12bR,15R)-6,7,15-trihydroxy-2,5,5-trimethyl-9-methylene-5,5a,6,7,10,11,12,12a-octahydro-4H-7,12b-(epoxymethano)-7a,10-methanocyclohepta[7,8]naphtho[1,2-d]thiazol-8(9H)-one] |  |  |  |  |  |  |  |  |  |  |  |  | IC50 (Panc-1; PANC-1, read-out: Effect on proliferation Panc-1 (IC50)): 7.8 µM; IC50 (Panc-1; PANC-1, read-out: IC50 (μM) Panc-1): 7.83 µM; Aqueous solubility compared with oridonin (Aqueous solubility): significantly improved solubility; solubility (Aqueous solubility; compound as such, read-out: Aqueous solubility): 4.47 mg/mL (≈ 10.7 mM); IC50 (DU145; DU-145, read-out: Effect on proliferation DU145 (IC50)): 7.6 µM; IC50 (DU145; DU-145, read-out: IC50 (μM) DU145): 7.63 µM; IC50 (AsPC1; ASPC1, read-out: Effect on proliferation AsPC1 (IC50)): 6.5 µM; IC50 (AsPC1; ASPC1, read-out: IC50 (μM) AsPC1): 6.46 µM; IC50 (MDA-MB-231; MDA-MB-231, read-out: Effect on proliferation MDA-MB-231 (ER negative) (IC50)): 6.9 µM; IC50 (MDA-MB-231; MDA-MB-231, read-out: IC50 (μM) MDA-MB-231): 6.88 µM; IC50 (MCF-7; MCF7, read-out: Effect on proliferation MCF-7 (ER positive) (IC50)): 2.6 µM; IC50 (MCF-7; MCF7, read-out: IC50 (μM) MCF-7): 2.63 µM
C=C1C(=O)[C@]23[C@H](O)[C@H]1CC[C@H]2[C@@]12CO[C@]3(O)[C@@H](O)[C@@H]1C(C)(C)Cc1sc(NCCCC)nc12 [CYD-6-28, (5aR,6S ,7S,7aR,10S,12aS,12bR,15R)-2-(butylamino)-6,7,15-trihydroxy-5,5-dimethyl-9-methylene-5,5a,6,7,10,11,12,12a-octahydro-4H-7,12b-(epoxymethano)-7a,10-methanocyclohepta[7,8]naphtho[1,2-d]thiazol-8(9H)-one] | 4.01 | 4 |  | 4.22 | 4.2 | 1.39 | 1.4 | 1.06 | 1.1 | 0.59 | 0.6 | low micromolar to nanomolar | 
C=C1C(=O)[C@]23[C@H](O)[C@H]1CC[C@H]2[C@@]12CO[C@]3(O)[C@@H](O)[C@@H]1C(C)(C)Cc1sc(NC(=N)N)nc12 [CYD-6-29, 1-((5aR,6S,7S,7aR,10S,12aS,12bR,15R)-6,7,15-trihydroxy-5,5-dimethyl-9-methylene-8-oxo-5,5a,6,7,8,9,10,11,12,12a-decahydro-4H-7,12b-(epoxymethano)-7a,10-methanocyclohepta[7,8]naphtho[1,2-d]thiazol-2-yl)guanidine] | 15.4 | > 10 | > 100 | 35.9 | > 10 | > 10 | > 10 | > 10 | > 10 | 3.43 | 3.4 |  | 
C=C1C(=O)[C@]23[C@H](O)[C@H]1CC[C@H]2[C@@]12CO[C@]3(O)[C@@H](O)[C@@H]1C(C)(C)Cc1sc(NC(C)C)nc12 [CYD-6-30, (5aR,6S,7S,7aR,10S,12aS,12bR,15R)-6,7,15-trihydroxy-2-(isopropylamino)-5,5-dimethyl-9-methylene-5,5a,6,7,10,11,12,12a-octahydro-4H-7,12b-(epoxymethano)-7a,10-methanocyclohepta[7,8]naphtho[1,2-d]thiazol-8(9H)-one] | 3.27 | 3.3 |  | 5.31 | 5.3 | 1.45 | 1.4 | 0.28 | 0.3 | 0.82 | 0.8 | low micromolar to nanomolar | 
C=C1C(=O)[C@@]23[C@@H]4OC(C)(C)O[C@@]25OC[C@]2(C6=C(CC[C@H](OCCCN=[N+]=[N-])O6)CC(C)(C)[C@H]2[C@@H]5O)[C@@H]3CC[C@@H]14 [CYD-8-87] |  |  |  |  |  |  |  |  |  |  |  |  | IC50 (MDA-MB-468): 6.63 ± 0.77 µM; IC50 (MDA-MB-231; MDA-MB-231, 48 h, Table 3, pyran-fused diterpenoids, MTT 48 h, mean ± SE of three experiments, read-out: IC50 (μM) MDA-MB-231): 7.57 ± 0.44 µM; IC50 (MCF-7/ADR): 8.6 ± 0.7 µM; IC50 (MCF-7; MCF7, 48 h, Table 3, pyran-fused diterpenoids, MTT 48 h, mean ± SE of three experiments, read-out: IC50 (μM) MCF-7): 7.79 ± 3.18 µM
